Tests used:
[1] = biological target: Solute carrier family 23 member 2 (Homo sapiens) (UniProt Q9UGH3); settings: 24 uM
Description: [14C]- AA uptake mediated by sodium-dependent ascorbate transporters, SVCT2 measured as Michaelis-Menten constant (Kt) at a concentration of 24 uM

[2] = biological target: Solute carrier family 23 member 2 (Homo sapiens) (UniProt Q9UGH3); settings: 12 uM
Description: [14C]- AA uptake mediated by sodium-dependent ascorbate transporters, SVCT2 measured as Michaelis-Menten constant (Kt) at a concentration of 12 uM

[3] = biological target: Solute carrier family 23 member 2 (Homo sapiens) (UniProt Q9UGH3); settings: 120 uM
Description: [14C]- AA uptake mediated by sodium-dependent ascorbate transporters, SVCT2 measured as Michaelis-Menten constant (Kt) at a concentration of 120 uM

[4] = biological target: Solute carrier family 23 member 2 (Homo sapiens) (UniProt Q9UGH3); settings: 6 uM
Description: [14C]- AA uptake mediated by sodium-dependent ascorbate transporters, SVCT2 measured as Michaelis-Menten constant (Kt) at a concentration of 6 uM

[5] = biological target: Solute carrier family 23 member 2 (Homo sapiens) (UniProt Q9UGH3); settings: 60 uM
Description: [14C]- AA uptake mediated by sodium-dependent ascorbate transporters, SVCT2 measured as Michaelis-Menten constant (Kt) at a concentration of 60 uM

[6] = test system: O=C(O)Cc1ccccc1Nc1c(Cl)cccc1Cl; settings: 12 uM
Description: ([14C]- AA) and its uptake mediated by sodium-dependent ascorbate transporters, SVCT2 measured as Maximum velocity (Vmax) at concentration of 12 uM

[7] = test system: O=C(O)Cc1ccccc1Nc1c(Cl)cccc1Cl; settings: 120 uM
Description: ([14C]- AA) and its uptake mediated by sodium-dependent ascorbate transporters, SVCT2 measured as Maximum velocity (Vmax) at concentration of 120 uM

[8] = test system: O=C(O)Cc1ccccc1Nc1c(Cl)cccc1Cl; settings: 24 uM
Description: ([14C]- AA) and its uptake mediated by sodium-dependent ascorbate transporters, SVCT2 measured as Maximum velocity (Vmax) at concentration of 24 uM

[9] = test system: O=C(O)Cc1ccccc1Nc1c(Cl)cccc1Cl; settings: 6 uM
Description: ([14C]- AA) and its uptake mediated by sodium-dependent ascorbate transporters, SVCT2 measured as Maximum velocity (Vmax) at concentration of 6 uM

[10] = test system: O=C(O)Cc1ccccc1Nc1c(Cl)cccc1Cl; settings: 60 uM
Description: ([14C]- AA) and its uptake mediated by sodium-dependent ascorbate transporters, SVCT2 measured as Maximum velocity (Vmax) at concentration of 60 uM

Kt [1] [µM] | Kt [2] [µM] | Kt [3] [µM] | Kt [4] [µM] | Kt [5] [µM] | Compound | Vmax (nM hr-1 (10e6*cells)-1) [6] | Vmax (nM hr-1 (10e6*cells)-1) [7] | Vmax (nM hr-1 (10e6*cells)-1) [8] | Vmax (nM hr-1 (10e6*cells)-1) [9] | Vmax (nM hr-1 (10e6*cells)-1) [10]
31 | 29 | 28 | 32 | 29 | O=C(O)Cc1ccccc1Nc1c(Cl)cccc1Cl | – | – | – | – | –
– | – | – | – | – | Solute carrier family 23 member 2 (Homo sapiens), Q9UGH3 | 2 | 0.26 | 1.4 | 3.1 | 0.49
